Where a name gives a salt, the structure may show the parent alone.
biological target: T1, human CGT (ceramide galactosyltransferase), CHO/CGT lysate (Homo sapiens, UniProt Q16880); assay: CGT enzyme assay, LC-MS/MS readout (Table 1 ranges without asterisk); assay type: biochemical; conditions: LC-MS/MS method (range without asterisk)
T1 construct: Full-length human CGT cDNA was cloned into the BamH1/Xho1 site of pcDNA3.1 (+); expressed in transfected cells; host or cells: Chinese hamster ovary (CHO) cells; lysate prepared with M-PER
T1 sequence (Q16880 21-541): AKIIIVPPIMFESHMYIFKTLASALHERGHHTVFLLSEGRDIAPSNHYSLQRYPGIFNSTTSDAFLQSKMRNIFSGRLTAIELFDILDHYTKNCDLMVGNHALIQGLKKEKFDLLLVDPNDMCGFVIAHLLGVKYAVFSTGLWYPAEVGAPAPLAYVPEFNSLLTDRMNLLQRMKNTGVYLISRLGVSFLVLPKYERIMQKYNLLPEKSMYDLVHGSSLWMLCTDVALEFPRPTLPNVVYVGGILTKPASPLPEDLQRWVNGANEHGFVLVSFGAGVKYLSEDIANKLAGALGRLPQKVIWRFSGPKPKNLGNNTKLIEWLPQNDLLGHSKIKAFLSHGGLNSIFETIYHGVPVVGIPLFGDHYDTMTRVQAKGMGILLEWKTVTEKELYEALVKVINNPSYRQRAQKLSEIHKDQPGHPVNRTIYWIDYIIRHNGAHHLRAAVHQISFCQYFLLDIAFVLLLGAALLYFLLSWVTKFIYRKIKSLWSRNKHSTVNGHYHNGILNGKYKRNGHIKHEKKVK
Experimental: Full-length human CGT cDNA was cloned into the BamH1/Xho1 site of pcDNA3.1 (+) mammalian expression vector (V90-20, Invitrogen, Carlsbad, Calif.) and the plasmid was transfected into Chinese hamster ovary (CHO) cells. Lysate was prepared using M-PER (Mammalian Protein Extraction Reagent, ThermoFisher Scientific, Grand Island, N.Y.) in the presence of a protease inhibitor cocktail (P8340, Sigma, Saint Louis, Mo.). Each 100 mm dish (100% confluent, approximately 1×10^7 cells) was lysed with 250 μL of M-PER containing protease inhibitors. Protein concentration was determined using a Pierce BCA protein assay kit (ThermoFisher Scientific). Four micrograms of CHO/CGT lysate was incubated with various concentrations of a compound (0.001 μM-50 μM) in 10 mM HEPES (pH 7.2) containing 35 μM dioleoylphosphatidylcholine, 5 mM MgCl2, 5 mM MnCl2, 1% BSA, 15 mM KCl, 1 mM EGTA, 8 mM CHAPS, 10 μM C6-NBD-dihydro-ceramide and 17.5 μM UDP-galactose in a final reaction volume of 20 μL at 37° C. for 1 hour. The final concentration of DMSO was 0.5% in both compound-treated and mock-treated samples. Tween 80 (0.01%) was optionally added to the reaction mixture to help solubilize the compounds. Each individual reaction was diluted with 80 μL of methanol:acetronitrile (1:3) containing 5 μM N-docdecanoyl-NBD-galactosylceramide (internal standard) to stop the reaction. 200 μL H2O:acetonitile (1:1) was added to precipitate the protein. After sufficient mixing, the plates were centrifuged at 2469 g for 38 minutes, 200 μL of supernatant was transferred to a LC/MS 96-deep well plate and a second spin was performed at 2469 g for 10 minutes. The final supernatant was injected in triplicate for RapidFire/MS/MS analysis.
An alternative LC-MS/MS based method was also used. For the LC-MS/MS readout, the CGT assay was identical to the one described above except for the following: […] was used as the CGT enzyme source, C12:0 (2R—OH) ceramide was used as the ceramide substrate and 0.3 μM Cl2 ceramide was used as the internal standard. Tween 80 was not present in the reaction mixture. The final supernatant was injected for LC-MS/MS analysis.
Quantitative analysis using the LC-MS/MS method: The quantitative analysis of C12:0 (2R—OH) ceramide and C12:0 (2R—OH) galactosylceramide by LC-MS/MS was performed on a Shimadzu ultra-fast liquid chromatography (Shimadzu, Japan) coupled with API 4000 mass spectrometer (Applied Biosystems, Concord, Ontario, Canada). Analyst 1.5 software packages (Applied Biosystems) were used to control the LC-MS/MS system, as well as for data acquisition and processing. 10 μL of sample was loaded onto a Luna C18 column (50 mm×2.0 mm, I.D. 3 μm, 100A) (Phenomenex, USA) for chromatographic separation. Mobile phase A consisted of HPLC grade water with 0.1% formic acid (v/v) and mobile phase B consisted of acetonitrile supplemented with 0.1% formic acid (v/v). The separation was achieved using the following gradient program at a flow rate of 0.8 mL/min: the initial mobile phase was 70% B, which was increased in a linear fashion to 95% B in 1.50 min, and then maintained at 95% B until 3.50 min. The mobile phase was then reset to 70% B within 0.01 min, and maintained until 4.50 min. The total run time was 4.50 min. The MS/MS detection was performed in ESI positive mode. The mass transition selected for quantification was m/z 498.5-264.3 for C12:0 (2R—OH) ceramide under the collision energy of 38.8 V, and the mass transition of C12:0 (2R—OH) galactosylceramide was m/z 660.6-264.5 under the collision energy of 51 V. The mass transition of Cl2 ceramide which was used as internal standard was m/z 482.4-264.3 under the collision energy of 33V. Compound IC50 values were calculated using a protocol identical to the one described for the RapidFire method (see Table 1, where data ranges without an asterix correspond to analysis using the LC-MS/MS method).
Using the above CGT enzyme and CGT cellular assays, the compounds of Table 1 were tested. […]

Compared with `CC(C)Oc1ccc2cc(S(=O)(=O)N[C@H](C(=O)N3CCC(N)CC3)C(F)(F)c3ccc(Br)cc3)ccc2c1Br` [Compound 119-1, (R)—N-(3-(4-aminopiperidin-1-yl)-1-(4-bromophenyl)-1,1-difluoro-3-oxopropan-2-yl)-5-bromo-6-isopropoxynaphthalene-2-sulfonamide], `CC(C)Oc1ccc2cc(S(=O)(=O)N[C@@H](C(=O)N3CCC(N)CC3)C(F)(F)c3ccc(Br)cc3)ccc2c1` [Compound 27-2, (S)—N-(3-(4-aminopiperidin-1-yl)-1-(4-bromophenyl)-1,1-difluoro-3-oxopropan-2-yl)-6-isopropoxynaphthalene-2-sulfonamide trifluoroacetate] is higher in IC50: 1 to 10 µM for the first, 10 to 30 µM for the second. The first is the more potent here.

`CCCCOc1ccc(S(=O)(=O)N[C@@H](C(=O)N2C3CCC2CC(N)C3)C(F)(F)c2ccc(Br)cc2)cc1` (stereo partly drawn) [Compound 22-2, N-((2S)-3-(3-amino-8-azabicyclo[3.2.1]octan-8-yl)-1-(4-bromophenyl)-1,1-difluoro-3-oxopropan-2-yl)-4-butoxybenzenesulfonamide] and `CCCCCCOc1ccc(S(=O)(=O)N[C@@H](C(=O)N2C3CCC2CC(N)C3)C(F)(F)c2ccc(Br)cc2)cc1` (stereo partly drawn) [Compound 23-2, N-((2S)-3-(3-amino-8-azabicyclo[3.2.1]octan-8-yl)-1-(4-bromophenyl)-1,1-difluoro-3-oxopropan-2-yl)-4-(hexyloxy)benzenesulfonamide] fall in the same range of IC50: 30 to 100 µM for the first, 30 to 100 µM for the second.

Compared with `CCC(CC)COc1ccc(S(=O)(=O)N[C@H](C(=O)N2C3CCC2CC(N)C3)C(F)(F)c2ccc(Br)cc2)cc1` (stereo partly drawn) [Compound 2-1, N-((2R)-3-(3-amino-8-azabicyclo[3.2.1]octan-8-yl)-1-(4-bromophenyl)-1,1-difluoro-3-oxopropan-2-yl)-4-(2-ethylbutoxy)benzenesulfonamide], `CCCCOc1ccc2cc(S(=O)(=O)N[C@@H](C(=O)N3C4CCC3CC(N)C4)C(F)(F)c3ccc(Br)cc3)ccc2c1` (stereo partly drawn) [Compound 6-2, N-((2S)-3-(3-amino-8-azabicyclo[3.2.1]octan-8-yl)-1-(4-bromophenyl)-1,1-difluoro-3-oxopropan-2-yl)-6-butoxynaphthalene-2-sulfonamide trifluoroacetate] is higher in IC50: 1 to 10 µM for the first, 30 to 100 µM for the second.

Compared with `NC1CC2CCC(C1)N2C(=O)[C@@H](NS(=O)(=O)c1ccc(OCC2CCCCC2)cc1)C(F)(F)c1ccc(Br)cc1` (stereo partly drawn) [Compound 12-1, N-((2R)-3-(3-amino-8-azabicyclo[3.2.1]octan-8-yl)-1-(4-bromophenyl)-1,1-difluoro-3-oxopropan-2-yl)-4-(cyclohexylmethoxy)benzenesulfonamide trifluoroacetate], `NC1CC2CCC(C1)N2C(=O)[C@H](NS(=O)(=O)c1ccc(OCCC2CCCCC2)cc1)C(F)(F)c1ccc(Br)cc1` (stereo partly drawn) [Compound 26-2, N-((2S)-3-(3-amino-8-azabicyclo[3.2.1]octan-8-yl)-1-(4-bromophenyl)-1,1-difluoro-3-oxopropan-2-yl)-4-(2-cyclohexylethoxy)benzenesulfonamide trifluoroacetate] is higher in IC50: 10 to 30 µM for the first, 30 to 100 µM for the second.

`NC1CC2CCC(C1)N2C(=O)[C@H](NS(=O)(=O)c1ccc(OCc2ccccc2)cc1)C(F)(F)c1ccc(Br)cc1` (stereo partly drawn) [Compound 11-2, N-((2S)-3-(3-amino-8-azabicyclo[3.2.1]octan-8-yl)-1-(4-bromophenyl)-1,1-difluoro-3-oxopropan-2-yl)-4-(benzyloxy)benzenesulfonamide trifluoroacetate] and `NC1CC2CCC(C1)N2C(=O)[C@H](NS(=O)(=O)c1ccc(Oc2ccc(F)cc2)cc1)C(F)(F)c1ccc(Br)cc1` (stereo partly drawn) [Compound 25-2, N-((2S)-3-(3-amino-8-azabicyclo[3.2.1]octan-8-yl)-1-(4-bromophenyl)-1,1-difluoro-3-oxopropan-2-yl)-4-(4-fluorophenoxy) benzenesulfonamide trifluoroacetate] fall in the same range of IC50: 30 to 100 µM for the first, 30 to 100 µM for the second.

`NC1CC2CCC(C1)N2C(=O)C(NC(=O)C(=O)c1ccc(-c2ccc(F)cc2)cn1)C(F)(F)c1ccc(Br)cc1` (stereo not shown) [Compound 14, N-(3-(3-amino-8-azabicyclo[3.2.1]octan-8-yl)-1-(4-bromophenyl)-1,1l-difluoro-3-oxopropan-2-yl)-2-(5-(4-fluorophenyl)pyridin-2-yl)-2-oxoacetamide trifluoroacetate] and `CC(C)Oc1ccc2cc([C@H](O)C(=O)N[C@@H](C(=O)N3C4CCC3CC(N)C4)C(F)(F)c3ccc(Br)cc3)ccc2c1` (stereo partly drawn) [Compound 19-6, (2S)—N-((2S)-3-(3-amino-8-azabicyclo[3.2.1]octan-8-yl)-1-(4-bromophenyl)-1,1-difluoro-3-oxopropan-2-yl)-2-hydroxy-2-(6-isopropoxynaphthalen-2-yl)acetamide trifluoroacetate] fall in the same range of IC50: 30 to 100 µM for the first, 30 to 100 µM for the second.

`CC(C)Oc1ccc2cc(S(=O)(=O)N[C@H](C(=O)N3C4CCC3CC(N(C)C)C4)C(F)(F)c3ccc(Br)cc3)ccc2c1` (stereo partly drawn) [Compound 21-1, N-((2R)-1-(4-bromophenyl)-3-(3-(dimethylamino)-8-azabicyclo[3.2.1]octan-8-yl)-1,1-difluoro-3-oxopropan-2-yl)-6-isopropoxynaphthalene-2-sulfonamide] and `CC(C)Oc1ccc2cc(S(=O)(=O)N[C@@H](C(=O)N3C4CCC3CC(N)C4)C(F)(F)c3ccc(Br)cc3)ccc2c1` (stereo partly drawn) [Compound 1-2, N-((2S)-3-(3-amino-8-azabicyclo[3.2.1]octan-8-yl)-1-(4-bromophenyl)-1,1-difluoro-3-oxopropan-2-yl)-6-isopropoxynaphthalene-2-sulfonamide] fall in the same range of IC50: 10 to 30 µM for the first, 10 to 30 µM for the second.

First: CC[C@@H](C)Oc1ccc2cc(S(=O)(=O)N[C@H](C(=O)N3C4CCC3CC(N)C4)C(F)(F)c3ccc(Br)cc3)ccc2c1 (stereo partly drawn) [Compound 13-1, N-((2R)-3-(3-amino-8-azabicyclo[3.2.1]octan-8-yl)-1-(4-bromophenyl)-1,1-difluoro-3-oxopropan-2-yl)-6-((R)-sec-butoxy)naphthalene-2-sulfonamide]
Second: CC[C@H](C)Oc1ccc2cc(S(=O)(=O)N[C@@H](C(=O)N3C4CCC3CC(N)C4)C(F)(F)c3ccc(Br)cc3)ccc2c1 (stereo partly drawn) [Compound 13-2, N-((2S)-3-(3-amino-8-azabicyclo[3.2.1]octan-8-yl)-1-(4-bromophenyl)-1,1-difluoro-3-oxopropan-2-yl)-6-((S)-sec-butoxy)naphthalene-2-sulfonamide]
The IC50 of the first is lower: 1 to 10 µM for the first, 10 to 30 µM for the second.

From patent US20190322676A1, “CERAMIDE GALACTOSYLTRANSFERASE INHIBITORS FOR THE TREATMENT OF DISEASE” (BioMarin Pharmaceutical Inc., priority 2016, published 2019)
